The values that follow come from US20040253278A1, “Breath Freshening and Oral Cleansing Product Using Carvacrol” (priority 2002, published 2004).

Values after ≈ are worked out from the molar mass of the structure shown.

Holding throughout (type): cell-based
The subject of assay [1] is Porphyromonas gingivalis. As to the kind of experiment: MIC (minimum inhibitory concentration), 96 well microtiter serial dilution. The following applies: 48 h. How it is done: (§1) In vitro tests were conducted with a gram positive supragingival plaque bacterium, Streptococcus mutans. In addition, two subgingival plaque bacteria associated with oral malodor were tested, Porphyromonas gingivalis and Fusobacterium nucleatum. The MIC (Minimum Inhibitory Concentrations) study protocol is as follows. Chlorhexidine was used as a positive control and sterile water was used as a negative control. Carvacrol was suspended in 10% methanol with 3.8% Tween 80. […] 96 well microtiter plates were used for this study. Each well contained 5×10^5 colony forming units/ml of bacteria, serially diluted agents and bacterial growth medium. All bacterial cultures were incubated at 37° C. and stationary. Bacterial growth was estimated spectrophotometrically at 660 nm, after 48 hours. The MIC for each test bacteria was defined as the minimum concentration of test compound limiting turbidity to […].

For assay [2], the system named is Fusobacterium nucleatum. Described as above. Conditions: 48 h. As to the method:
as §1

Assay [3] relates to Streptococcus mutans. Described as above. The following applies: 48 h. As to the method:
as §1

For assay [4], the system named is Porphyromonas gingivalis. Nature of the assay: MBC (minimum bactericidal concentration), plating on blood agar. The following applies: 48 h. As to the method:
(§2) The MBC (Minimum bactericidal concentrations) were determined using the 96 well microtiter plate serial dilutions as described above for MIC studies. Serial dilution of cultures in wells showing no visible growth were performed and 10 microliters of culture were plated in triplicate on blood agar plates. Viable colonies were scored after incubation of the plates for 48 hours at 37° C. For each test bacterium, the number of CFU/ml were determined in the initial inoculum. The MBC was defined as the lowest concentration of a test compound that killed at least 99.9% of the cells present in the initial inoculum.

Assay [5] deals with Fusobacterium nucleatum. Described as above. Conditions: 48 h. How it is done: as §2
Assay [6] has as its system Streptococcus mutans. The description is as above. The following applies: 48 h. As to the method: as §2
For assay [7], the system named is both bacteria. Nature of the assay: MIC of positive control, bacteria not named. The following applies: "for both bacteria". As to the method:
as §1

Assay [8] relates to both bacteria. Nature of the assay: MBC of positive control, bacteria not named. How it is done:
as §2

As usually defined, the MIC is the lowest concentration found to suppress growth. As usually defined, the MBC is the smallest concentration meeting the test's criterion for killing. In the case of `Cc1ccc(C(C)C)cc1O` [carvacrol], the MIC in assay [1] is 125 µg/mL (≈ 832 µM); in assay [2] it was 125 µg/mL (≈ 832 µM); in assay [3], 250 µg/mL (≈ 1660 µM). Also, the MBC in assay [4], in assay [5] and in assay [6] was 125 µg/mL (≈ 832 µM) in each case.

For `[H]/N=C(\N/C(=N/[H])NCCCCCCNC(=N)NC(=N)Nc1ccc(Cl)cc1)Nc1ccc(Cl)cc1` [Cholorhexidine, Chlorhexidine], in assay [7], the MIC was 1.25 µg/mL. The MBC in assay [8] is 1.25 µg/mL.
